Results reported in PubChem BioAssay AID328 (DTP/NCI, 2004).
Values joined by “and” are separate entries in the source; they are usually repeats but may differ in a detail not shown here. Equal entries are not always repeated. Toxic doses and inconclusive results are not listed. How the source made its calls: active means survival T/C of 150% or more; inactive means T/C below 125% in these data.

Test system: BDF1 mice, P388 leukemia ip, median survival T/C
Test: NCI In Vivo Anticancer Drug Screen. Data for tumor model P388 Leukemia (intraperitoneal) in B6D2F1 (BDF1) mice
Details: endpoint: median survival time, higher = longer survival
Outline: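 Read-out is survival of treated animals expressed relative to the vehicle group, as a T/C ratio.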

[1] = dose: 6.25 mg/kg/injection, schedule: Q01DX009 (ip), vehicle: saline with Tween-80
[2] = dose: 12.5 mg/kg/injection, schedule: Q01DX009 (ip), vehicle: saline with Tween-80
[3] = dose: 100.0 mg/kg/injection, schedule: Q01DX009 (ip), vehicle: saline with Tween-80
[4] = dose: 200.0 mg/kg/injection, schedule: Q01DX009 (ip), vehicle: saline with Tween-80
[5] = dose: 400.0 mg/kg/injection, schedule: Q01DX009 (ip), vehicle: saline with Tween-80
[6] = dose: 3.12 mg/kg/injection, schedule: Q01DX009 (ip), vehicle: water
[7] = dose: 6.25 mg/kg/injection, schedule: Q01DX009 (ip), vehicle: water
[8] = dose: 25.0 mg/kg/injection, schedule: Q04DX003 (ip), vehicle: saline
[9] = dose: 50.0 mg/kg/injection, schedule: Q04DX003 (ip), vehicle: saline
[10] = dose: 100.0 mg/kg/injection, schedule: Q01DX009 (ip), vehicle: water
[11] = dose: 100.0 mg/kg/injection, schedule: Q04DX003 (ip), vehicle: water
[12] = dose: 100.0 mg/kg/injection, schedule: Q01DX009 (ip), vehicle: Klucel (hydroxypropylcellulose) (HPC)
[13] = dose: 200.0 mg/kg/injection, schedule: Q01DX009 (ip), vehicle: Klucel (hydroxypropylcellulose) (HPC)
[14] = dose: 50.0 mg/kg/injection, schedule: Q04DX003 (ip), vehicle: saline with Tween-80
[15] = dose: 100.0 mg/kg/injection, schedule: Q04DX003 (ip), vehicle: saline with Tween-80
[16] = dose: 200.0 mg/kg/injection, schedule: Q04DX003 (ip), vehicle: saline with Tween-80
[17] = dose: 25.0 mg/kg/injection, schedule: Q01DX009 (ip), vehicle: saline with Tween-80
[18] = dose: 50.0 mg/kg/injection, schedule: Q01DX009 (ip), vehicle: saline with Tween-80

Measured: T/C

COc1cc(C=C2C(=O)C=CC2=O)ccc1O
inactive: dose: 0.78 mg/kg/injection, schedule: Q01DX009 (ip), vehicle: saline with Tween-80 116 % of control | dose: 1.56 mg/kg/injection, schedule: Q01DX009 (ip), vehicle: saline with Tween-80 104 % of control | dose: 3.13 mg/kg/injection, schedule: Q01DX009 (ip), vehicle: saline with Tween-80 112 % of control | [1] 110 % of control | [2] 95 % of control

CCCCCCCCN(C)N=Nc1ccc(Cl)cc1C(=O)O
inactive: [3] 94 % of control | [4] 116 % of control | [5] 88 % of control

COc1cccc2c1C(=O)c1c(O)c3c(c(O)c1C2=O)C[C@@](O)(C(=O)O)C[C@@H]3OC1CC(N)C(O)C(C)O1 (stereo not given in full)
inactive: dose: 1.56 mg/kg/injection, schedule: Q01DX009 (ip), vehicle: water 100 % of control | [6] 107 % of control and 109 % of control | [7] 93 % of control

CC(C)c1cccc(OS(=O)(=O)c2ccccc2[N+](=O)[O-])c1
inactive: dose: 100.0 mg/kg/injection, schedule: Q04DX003 (ip), vehicle: saline sonified 100 % of control | dose: 200.0 mg/kg/injection, schedule: Q04DX003 (ip), vehicle: saline sonified 100 % of control | dose: 400.0 mg/kg/injection, schedule: Q04DX003 (ip), vehicle: saline sonified 100 % of control

COc1ccc2c(c1)CCC1C2CCC2(C)C(=O)OC(=O)C12 (stereo not given)
inactive: dose: 87.5 mg/kg/injection, schedule: Q01DX009 (sc), vehicle: steriod suspending solution 91 % of control | dose: 100.0 mg/kg/injection, schedule: Q04DX003 (sc), vehicle: steriod suspending solution 100 % of control | dose: 175.0 mg/kg/injection, schedule: Q01DX009 (sc), vehicle: steriod suspending solution 100 % of control | dose: 200.0 mg/kg/injection, schedule: Q04DX003 (sc), vehicle: steriod suspending solution 109 % of control | dose: 350.0 mg/kg/injection, schedule: Q01DX009 (sc), vehicle: steriod suspending solution 95 % of control | dose: 400.0 mg/kg/injection, schedule: Q04DX003 (sc), vehicle: steriod suspending solution 95 % of control

O=N[O-].[Co].[NH2-].[NH2-].[NH2-].[NH2-].[NH2-]
inactive: dose: 12.5 mg/kg/injection, schedule: Q04DX003 (ip), vehicle: saline 95 % of control | [8] 100 % of control | [9] 100 % of control

CCOC(=O)N=C=O
inactive: [10] 114 % of control | [11] 96 % of control | dose: 200.0 mg/kg/injection, schedule: Q01DX009 (ip), vehicle: water 110 % of control | dose: 200.0 mg/kg/injection, schedule: Q04DX003 (ip), vehicle: water 99 % of control | dose: 400.0 mg/kg/injection, schedule: Q04DX003 (ip), vehicle: water 107 % of control

CN1CCc2ccccc2C1Cc1ccccc1NC(=O)c1sc2ccccc2c1Cl (stereo not given)
inactive: dose: 50.0 mg/kg/injection, schedule: Q01DX009 (ip), vehicle: Klucel (hydroxypropylcellulose) (HPC) 86 % of control | [12] 91 % of control | [13] 89 % of control

CS(=O)(=O)OCc1c(O)c2c(c(O)c1COS(C)(=O)=O)C(=O)C=CC2=O
inactive: [6] 103 % of control | dose: 3.12 mg/kg/injection, schedule: Q04DX003 (ip), vehicle: water 102 % of control | [7] 114 % of control | dose: 6.25 mg/kg/injection, schedule: Q04DX003 (ip), vehicle: water 102 % of control | dose: 12.5 mg/kg/injection, schedule: Q01DX009 (ip), vehicle: water 106 % of control | dose: 12.5 mg/kg/injection, schedule: Q04DX003 (ip), vehicle: water 93 % of control | dose: 25.0 mg/kg/injection, schedule: Q01DX009 (ip), vehicle: water 107 % of control | dose: 25.0 mg/kg/injection, schedule: Q04DX003 (ip), vehicle: water 101 % of control | dose: 50.0 mg/kg/injection, schedule: Q01DX009 (ip), vehicle: water 116 % of control | dose: 50.0 mg/kg/injection, schedule: Q04DX003 (ip), vehicle: water 102 % of control | [10] 94 % of control | [11] 108 % of control and 109 % of control

CCOc1ccc(Nc2cc([N+](=O)[O-])ccc2C(=O)O)cc1
inactive: [14] 100 % of control | [15] 90 % of control | [16] 90 % of control

CCCCC(CC)COC(=O)CCC(CCC(=O)OCC(CC)CCCC)C(=O)OCC(CC)CCCC (stereo not given)
inactive: [15] 90 % of control | [16] 118 % of control | dose: 400.0 mg/kg/injection, schedule: Q04DX003 (ip), vehicle: saline with Tween-80 95 % of control

CCCCCC(O)CCCCC
inactive: [3] 104 % of control | [4] 95 % of control

CN(C)c1ccc(C(=C2C=CC(=[N+](C)C)C=C2)c2ccc(N(C)C)cc2)cc1
inactive: dose: 0.78 mg/kg/injection, schedule: Q01DX009 (ip), vehicle: saline 107 % of control | dose: 1.56 mg/kg/injection, schedule: Q01DX009 (ip), vehicle: saline 121 % of control | dose: 1.56 mg/kg/injection, schedule: Q04DX003 (ip), vehicle: saline 122 % of control | dose: 3.12 mg/kg/injection, schedule: Q04DX003 (ip), vehicle: saline 86 % of control

NN(c1cccc(C(F)(F)F)c1)c1ccccn1
inactive: dose: 12.5 mg/kg/injection, schedule: Q01DX009 (ip), vehicle: saline 108 % of control | dose: 25.0 mg/kg/injection, schedule: Q01DX009 (ip), vehicle: saline 106 % of control | dose: 50.0 mg/kg/injection, schedule: Q01DX009 (ip), vehicle: saline 115 % of control

Cc1cc(Cl)c2ccccc2[n+]1C
inactive: [8] 96 % of control | [9] 88 % of control | dose: 100.0 mg/kg/injection, schedule: Q04DX003 (ip), vehicle: saline 103 % of control

Nc1nc(C=O)c(Cc2ccc(Br)cc2)c(=O)[nH]1
inactive: [17] 123 % of control | dose: 25.0 mg/kg/injection, schedule: Q04DX003 (ip), vehicle: saline with Tween-80 104 % of control | [18] 123 % of control | [14] 104 % of control | dose: 66.0 mg/kg/injection, schedule: Q01DX009 (ip), vehicle: saline with Tween-80 110 % of control | [15] 113 % of control

CC(C)=CCC/C(C)=C\CCl
inactive: [17] 105 % of control | dose: 37.5 mg/kg/injection, schedule: Q01DX009 (ip), vehicle: saline with Tween-80 99 % of control | [18] 121 % of control | [14] 107 % of control | dose: 75.0 mg/kg/injection, schedule: Q01DX009 (ip), vehicle: saline with Tween-80 122 % of control | [3] 105 % of control | [15] 111 % of control

Nc1nc(SCc2cccc(Br)c2)c2ncn(C3OC(CO)C(O)C3O)c2n1 (stereo not given)
inactive: [15] 104 % of control | [16] 122 % of control

c1ccc2c(c1)[nH]c1nc3ccncc3nc12
inactive: [14] 90 % of control | [15] 95 % of control

CCSC1(SCC)C(=O)OC2=C(CCCC2)C1N(C)C (stereo not given)
inactive: [18] 90 % of control | [3] 103 % of control | [4] 105 % of control

NC1=CC(=O)c2ccccc2C1=O
inactive: [1] 101 % of control | [2] 113 % of control | [17] 103 % of control | [18] 103 % of control

CC(C)(C)/C=N/Nc1ccc([N+](=O)[O-])cc1[N+](=O)[O-]
inactive: dose: 50.0 mg/kg/injection, schedule: Q04DX003 (ip), vehicle: Klucel (hydroxypropylcellulose) (HPC) 104 % of control | [12] 100 % of control | dose: 100.0 mg/kg/injection, schedule: Q04DX003 (ip), vehicle: Klucel (hydroxypropylcellulose) (HPC) 104 % of control | [13] 100 % of control | dose: 200.0 mg/kg/injection, schedule: Q04DX003 (ip), vehicle: Klucel (hydroxypropylcellulose) (HPC) 109 % of control | dose: 400.0 mg/kg/injection, schedule: Q01DX009 (ip), vehicle: Klucel (hydroxypropylcellulose) (HPC) 95 % of control

O=C([O][Hg][CH2]C1COC([CH2][Hg][O]C(=O)c2ccccc2)CO1)c1ccccc1 (stereo not given)
inactive: [15] 113 % of control

Nc1ccn(CC(=O)c2cccs2)c(=O)n1
inactive: [17] 100 % of control | [18] 115 % of control | [3] 100 % of control | [15] 90 % of control | [16] 95 % of control

Cc1ccc(Nc2n[nH]c(=S)s2)cc1C
inactive: [3] 104 % of control | [4] 109 % of control | [5] 109 % of control
